# Experimental data reported in ChEMBL document CHEMBL5321196, “Fluorescent and theranostic probes for imaging nicotinamide phosphoribosyl transferase (NAMPT)” (Eur J Med Chem, 2023).
# How the values were obtained:
# [1] = molecular target: T1, Nicotinamide phosphoribosyltransferase (Homo sapiens, UniProt P43490); assay: Inhibition of NAMPT in human A2780 cells measured at 48 hrs
# [2] = molecular target: T1, Nicotinamide phosphoribosyltransferase; assay: Inhibition of NAMPT in human A2780 cells measured at 6 hrs
# [3] = molecular target: T1, Nicotinamide phosphoribosyltransferase; assay: Inhibition of NAMPT in human A2780 cells measured at 24 hrs
# T1 sequence (P43490 whole entry): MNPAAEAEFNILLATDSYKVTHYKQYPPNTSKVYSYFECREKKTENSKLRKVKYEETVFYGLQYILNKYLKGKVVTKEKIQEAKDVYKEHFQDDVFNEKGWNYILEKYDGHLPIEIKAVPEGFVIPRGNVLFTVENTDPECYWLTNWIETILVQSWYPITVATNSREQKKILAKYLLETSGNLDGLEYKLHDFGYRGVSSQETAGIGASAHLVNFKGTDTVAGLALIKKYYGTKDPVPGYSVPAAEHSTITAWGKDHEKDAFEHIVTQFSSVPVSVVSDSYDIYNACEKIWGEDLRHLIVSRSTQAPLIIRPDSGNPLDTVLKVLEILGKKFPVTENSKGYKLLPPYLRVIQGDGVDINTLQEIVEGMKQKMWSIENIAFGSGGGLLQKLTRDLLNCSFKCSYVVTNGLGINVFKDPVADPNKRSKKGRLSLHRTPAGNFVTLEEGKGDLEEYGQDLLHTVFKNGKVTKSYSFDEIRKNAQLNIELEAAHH
structure (smiles),measurement,setting,value
O=S(=O)(c1ccc(NC(=S)NCc2cccnc2)cc1)N1CCNCC1,IC50,[1],4.05 µM
same,IC50,[2],> 10 µM
same,IC50,[3],7.18 µM
